Source: the NIST ThermoML archive (doi:10.1016/j.jct.2013.04.001)

Tests used:
[1] = mn = molality of the nth substance listed, in mol/kg; conditions: 101 kPa, Liquid, m2 = 0; for viscosity: Capillary tube (Ostwald / Ubbelohde) method
[2] = 101 kPa, Liquid, Capillary tube (Ostwald / Ubbelohde) method
[3] = wn = mass fraction of the nth substance listed; conditions: 101 kPa, Liquid; for mass density: Pycnometric method; for viscosity: Capillary tube (Ostwald / Ubbelohde) method

O [water] + N=C(N)NCCC[C@H](N)C(=O)O
[1]
Conditions	viscosity [mPa·s]
298.15 K	0.8903
303.15 K	0.7973
308.15 K	0.719
313.15 K	0.6526
318.15 K	0.5972

Conditions	mass density [kg/m3]
[1], 308.15 K, Pycnometric method	994.07

O [water]
[2]
Conditions	viscosity [mPa·s]
298.15 K	0.8903
303.15 K	0.7973
308.15 K	0.719
313.15 K	0.6526
318.15 K	0.5972

O=C[C@H](O)[C@@H](O)[C@@H](O)CO [L-arabinose] + O
[3]
Conditions	mass density, w1 = 0.025 [kg/m3]	mass density, w1 = 0.05 [kg/m3]	viscosity, w1 = 0.025 [mPa·s]	viscosity, w1 = 0.05 [mPa·s]
293.15 K	1007.35	1016.09	–	–
298.15 K	1005.77	1014.44	0.9141	0.9695
303.15 K	1004.18	1012.79	0.8116	0.8573
308.15 K	1002.6	1011.13	0.7304	0.7658
313.15 K	1001.01	1009.46	0.6591	0.689
318.15 K	999.43	1007.8	0.6006	0.6295

O=C[C@H](O)[C@@H](O)[C@H](O)CO [D-xylose] + O
[3]
Conditions	mass density, w1 = 0.025 [kg/m3]	mass density, w1 = 0.05 [kg/m3]	viscosity, w1 = 0.025 [mPa·s]	viscosity, w1 = 0.05 [mPa·s]
293.15 K	1007.24	1015.93	–	–
298.15 K	1005.63	1014.27	0.9096	0.964
303.15 K	1004.03	1012.62	0.8077	0.8547
308.15 K	1002.43	1010.96	0.7269	0.7637
313.15 K	1000.84	1009.31	0.6571	0.6869
318.15 K	999.23	1007.66	0.5992	0.6253
